The results in this text go back to ChEMBL document CHEMBL1201862, “PubChem BioAssay data set” (2004).

Test in all cases: growth of human tumour cells (NCI), 48 h
Experiment [1] relates to MDA-MB-435.
Experiment [2] concerns HCC 2998.
Experiment [3] relates to RXF 393.
In experiment [4] the test system is U-251.
In experiment [5] the test system is T47D.
The test system of experiment [6] is COLO 205.
In experiment [7] the test system is SF-295.
Experiment [8] deals with BT-549.
Experiment [9] has as its system CAKI-1.
For experiment [10], the system named is OVCAR-3.
The test system of experiment [11] is HCT-15.
Experiment [12] has as its system SF-268.
Experiment [13] concerns NCI-H23.
Experiment [14] deals with OVCAR-8.
In experiment [15] the test system is NCI-H226.
The subject of experiment [16] is DU-145.
In experiment [17] the test system is KM12.
Experiment [18] deals with HT-29.
The subject of experiment [19] is OVCAR-4.
Experiment [20] concerns SW-620.

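Briefly, cells in 96-well plates were exposed to five compound concentrations for 48 h, and endpoints were estimated by linear interpolation. The concentration for 50% growth inhibition is given as GI50.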 Calls of active or inactive are those of the source. Rule as the data show it: active = GI50 up to about 1.1 µM and inactive = higher.

For the compound `CC(=O)NC1=C(C)C(=O)c2c(nc3n2CC[C@H]3OC(C)=O)C1=O`, the GI50 is 0.774 µM (active) in experiment [1]; 2.52 µM (inactive) in [2]; 1.73 µM (inactive) in experiment [3]; 1.59 µM (inactive) in [4]; 0.238 µM (active) in experiment [5]; 1.91 µM (inactive) in experiment [6]. The GI50 in experiment [7] is 2.1 µM (inactive); in experiment [8], 1.59 µM (inactive); in [9], 3.98 µM (inactive); in [10], 0.0982 µM (active); in experiment [11], 3.58 µM; in experiment [12], 2.87 µM (inactive). Also, the GI50 in experiment [13] is 2.61 µM (inactive); in experiment [14], 1.55 µM (inactive); in experiment [15] it was 9.77 µM (inactive); in experiment [16] it was 15.9 µM (inactive); in experiment [17] it was 1.71 µM (inactive); in experiment [18], 2.47 µM (inactive). The figures for the GI50 in experiment [19] and in experiment [20] were 0.891 µM (active) and 1.53 µM (inactive), respectively.
For `CCc1[nH]c(=O)nc(N)c1-c1ccc(N2CCCCC2)c([N+](=O)[O-])c1`, the GI50 in experiment [1], in [2], in experiment [3], in experiment [4], in [5] and in experiment [6] was > 100 µM (inactive) in each case. The GI50 in [7] was > 100 µM (inactive); in experiment [8], > 100 µM (inactive); in experiment [9], > 100 µM (inactive); in experiment [10] it was > 100 µM (inactive); in experiment [11], more than 100 µM; in experiment [12] it was > 100 µM (inactive). Moreover, the GI50 in [13], in [14], in [15], in experiment [16], in [17] and in experiment [18] was > 100 µM (inactive) in each case. The GI50 in experiment [19] and in experiment [20] was > 100 µM (inactive) each time.
In the case of `CN(C)CCn1c(=O)c2ccc(NCCCN(C)CCCNc3ccc4c(=O)n(CCN(C)C)c(=O)n5c6ccccc6c(=O)c3c45)c3c(=O)c4ccccc4n(c1=O)c23`, the GI50 in [1] was < 0.0151 µM (active); in [2] it was < 0.0115 µM (active); in experiment [3], < 0.0149 µM (active); in experiment [4], < 0.01 µM (active); in experiment [5] it was 0.54 µM (active); in experiment [6], < 0.01 µM (active). Moreover, the GI50 was < 0.01 µM (active) in [7]; 0.117 µM (active) in [8]; 0.0172 µM (active) in experiment [9]; 0.0778 µM (active) in [10]; less than 0.01 µM in experiment [11]; 0.258 µM (active) in experiment [12]. The GI50 in [13], in experiment [14], in [15], in [16], in experiment [17] and in experiment [18] was < 0.01 µM (active) throughout. Also, the GI50 in [19] and in [20] was < 0.01 µM (active) throughout.
On to `O=C(OCc1ccccc1)N(CCCCN(CCCNC(=O)C(F)(F)F)C(=O)OCc1ccccc1)CCCNC(=O)C(F)(F)F`, for which the GI50 in experiment [1] was > 100 µM (inactive); in [2], > 100 µM (inactive); in experiment [3], > 100 µM (inactive); in experiment [4] it was > 100 µM (inactive); in experiment [5], > 100 µM (inactive); in [6], > 88.1 µM (inactive). For the same compound, the GI50 in [7] was > 100 µM (inactive); in experiment [8] it was > 100 µM (inactive); in experiment [9], 1.56 µM (inactive); in experiment [10] it was > 100 µM (inactive); in [11], more than 100 µM; in [12] it was > 100 µM (inactive). Moreover, the GI50 is > 100 µM (inactive) in experiment [13]; > 100 µM (inactive) in [14]; > 100 µM (inactive) in [15]; > 100 µM (inactive) in experiment [16]; > 100 µM (inactive) in experiment [17]; > 28.4 µM (inactive) in experiment [18]. In addition, the GI50 in experiment [19] and in experiment [20] was > 100 µM (inactive) throughout.
For the compound `O=C1/C(=C\c2ccc(Br)cc2)CCCc2ccccc21`, the GI50 in experiment [1] was 19.2 µM (inactive); in [2], 14.7 µM (inactive); in [3], 21 µM (inactive); in [4] it was 15 µM (inactive); in [5], 10.5 µM (inactive); in experiment [6] it was 17.9 µM (inactive). Besides, the GI50 in experiment [7] is 22 µM (inactive); in experiment [8], 24 µM (inactive); in [9], 29.3 µM (inactive); in [10] it was 20.8 µM (inactive); in [11], 12.4 µM; in experiment [12], 16.9 µM (inactive). The GI50 in [13] was 17.1 µM (inactive); in [14], 15 µM (inactive); in [15], 14.4 µM (inactive); in [16] it was 15.5 µM (inactive); in experiment [17], 15.6 µM (inactive); in experiment [18], 15 µM (inactive). Moreover, the GI50 in experiment [19] is 12.3 µM (inactive); in [20], 16.9 µM (inactive).
With `CC(C)(C)c1cc(C(=O)/C=C/C=C/c2ccccc2)cc(C(C)(C)C)c1O`, the GI50 is 11.2 µM (inactive) in experiment [1]; 14 µM (inactive) in experiment [2]; 2.94 µM (inactive) in [3]; 14.2 µM (inactive) in [4]; 28.9 µM (inactive) in experiment [5]; 16.6 µM (inactive) in experiment [6]. Further, the GI50 in experiment [7] was 27.2 µM (inactive); in experiment [8], 18.5 µM (inactive); in experiment [9] it was 29 µM (inactive); in [10], 27.4 µM (inactive); in experiment [11], 15.9 µM; in experiment [12] it was 25.2 µM (inactive). Also, the GI50 was 27.2 µM (inactive) in [13]; 19.5 µM (inactive) in experiment [14]; 24.3 µM (inactive) in [15]; 29.4 µM (inactive) in [16]; > 28.2 µM (inactive) in [17]; 22.9 µM (inactive) in [18]. In addition, the GI50 is > 51.5 µM (inactive) in experiment [19] and 11.5 µM (inactive) in experiment [20].
Consider `COC(=O)C1=C(OC(=O)/C=C/c2ccc(Cl)cc2)C(C(=O)OC)[C@]2(O)[C@@H](C(=O)OC)[C@H]1C[C@@H](c1ccccc1)[C@@H]2C(=O)OC` (stereo not given in full), for which the GI50 was 3.82 µM (inactive) in experiment [1]; 7.83 µM (inactive) in [2]; 9.29 µM (inactive) in experiment [3]; 4.74 µM (inactive) in experiment [4]; 5.87 µM (inactive) in experiment [5]; 4.43 µM (inactive) in experiment [6]. For the same compound, the GI50 in experiment [7] is 9.23 µM (inactive); in experiment [8] it was 6.55 µM (inactive); in experiment [9] it was 11.1 µM (inactive); in [10], 7.5 µM (inactive); in experiment [11] it was 3.66 µM; in [12], 4.66 µM (inactive). The GI50 in experiment [13] was 3.44 µM (inactive); in experiment [14] it was 3.95 µM (inactive); in experiment [15], 4.12 µM (inactive); in experiment [16], 7.31 µM (inactive); in experiment [17], 4.89 µM (inactive); in experiment [18] it was 7.74 µM (inactive). The GI50 in experiment [19] was 5.19 µM (inactive); in [20], 3.97 µM (inactive).
For `O/N=C1\Nc2ccccc2OCc2cc(Br)c(Br)cc2COc2ccccc2N\C1=N/O`, the GI50 in experiment [1] is 14.8 µM (inactive); in experiment [2], 7.71 µM (inactive); in [3], 16.6 µM (inactive); in [4] it was 13.8 µM (inactive); in experiment [5], 10.9 µM (inactive); in experiment [6], 7.08 µM (inactive). The GI50 in [7] was 16.5 µM (inactive); in experiment [8], 15.1 µM (inactive); in experiment [9] it was 12.9 µM (inactive); in [10], 7.21 µM (inactive); in experiment [11], 5.86 µM; in experiment [12], 8.91 µM (inactive). The GI50 in [13] was 13.8 µM (inactive); in experiment [14], 10.4 µM (inactive); in experiment [15] it was 21.5 µM (inactive); in [16], 13.6 µM (inactive); in [17], 8.51 µM (inactive); in experiment [18], 7.85 µM (inactive). Further, the GI50 is 10.7 µM (inactive) in [19] and 11.8 µM (inactive) in [20].
Consider `Cc1cc(S(=O)(=O)Nc2nc3cccnc3[nH]2)c(S)cc1Cl`, for which the GI50 in [1] was > 100 µM (inactive); in experiment [2], > 100 µM (inactive); in experiment [3] it was > 100 µM (inactive); in experiment [4] it was 63.2 µM (inactive); in experiment [5], 46.8 µM (inactive); in [6], > 100 µM (inactive). Also, the GI50 in experiment [7] was 58.1 µM (inactive); in [8], > 100 µM (inactive); in experiment [9] it was > 100 µM (inactive); in [10], > 100 µM (inactive); in [11] it was 91 µM; in [12], 79.1 µM (inactive). Further, the GI50 is 97.5 µM (inactive) in [13]; > 100 µM (inactive) in [14]; 52.2 µM (inactive) in experiment [15]; > 100 µM (inactive) in experiment [16]; > 100 µM (inactive) in experiment [17]; > 100 µM (inactive) in experiment [18]. Further, the results for the GI50 in [19] and in [20] were 79.4 µM (inactive) and > 100 µM (inactive), respectively.
In the case of `COc1cc(C2c3cc4c(cc3OC(Nc3ccccc3)C2C)OCO4)cc(OC)c1OC` (stereo not given), the GI50 in [1] is 0.139 µM (active); in experiment [2], 1.08 µM (active); in [3], 0.565 µM (active); in experiment [4] it was 0.392 µM (active); in experiment [5], 42.3 µM (inactive); in experiment [6] it was 0.415 µM (active). Also, the GI50 in [7] was 0.333 µM (active); in experiment [8], 4.36 µM (inactive); in [9], 0.555 µM (active); in experiment [10], 0.323 µM (active); in experiment [11], 0.494 µM; in [12], 1.91 µM (inactive). Besides, the GI50 is 0.991 µM (active) in [13]; 1.44 µM (inactive) in [14]; 1.13 µM (inactive) in [15]; 0.923 µM (active) in [16]; 0.48 µM (active) in experiment [17]; 0.396 µM (active) in experiment [18]. The GI50 is 24.7 µM (inactive) in [19] and 0.473 µM (active) in [20].
